Measurements as given in US11000033B2, “Ketone or oxime compound, and herbicide” (NISSAN CHEMICAL CORPORATION, priority 2014, dated 2021).

Experiments:
Assay type in all cases: in vivo
Scirpus juncoides = assay: Test Example 1: herbicidal activity, application before weed generation in submerged conditions (symbol B); conditions: application herbicide amount 320 g/ha
Outline: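 Mixed weed seeds sown in alluvial soil under 4 cm of water, with rice seedlings at the 2.5-leaf stage added. Same-day treatment: emulsion diluted to a set herbicide amount onto the water. Three weeks at 25–30 °C, then graded on a six-step scale.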

Leptochloa chinensis = assay: Test Example 3: herbicidal effect by foliage application, Wagner pot (symbol D); conditions: application herbicide amount 320 g/ha
Outline: (§1)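 Plants sown in submerged alluvial soil (water depth 0.1–0.5 cm) in a 25–30 °C greenhouse and grown 14 days. An emulsion of the compound diluted in water to a set herbicide amount was sprayed uniformly on foliage. Effect on each plant scored 3 weeks after application.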

Cyperus difformis = assay: Test Example 3: herbicidal effect by foliage application, Wagner pot (symbol E); conditions: application herbicide amount 320 g/ha
Outline: as §1

Digitaria ciliaris = assay: Test Example 4: herbicidal effect by soil treatment (symbol F)
Outline: (§2)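 Seeds were sown in sterilized diluvial soil, covered with about 1.5 cm of soil, and the soil surface was sprayed with a water-diluted emulsion of the compound at a predetermined rate. Plants grew in a greenhouse at 25° C. to 30° C.; effects were scored visually 3 weeks after application.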

[1] = system: Echinochloa crus-galli var. crus-galli; assay: Test Example 4: herbicidal effect by soil treatment (symbol H)
Outline: as §2

Lolium multiflorum Lam. = assay: Test Example 4: herbicidal effect by soil treatment (symbol K)
Outline: as §2

Amaranthus retroflexus = assay: Test Example 4: herbicidal effect by soil treatment (symbol N)
Outline: as §2

Chenopodium album [2] = assay: Test Example 4: herbicidal effect by soil treatment (symbol O)
Outline: as §2

rice = assay: Test Example 4: effect on crop by soil treatment (symbol b); conditions: for b: directly sowed rice plant, effect on crop grade: application herbicide amount 320 g/ha
Outline: (§3)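 Plants are raised in a greenhouse (25° C. to 30° C.) from spot-sown seed, which sits under about 1.5 cm of sterilized diluvial soil in a box shared with weed species.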

beet = assay: Test Example 4: effect on crop by soil treatment (symbol f); conditions: for f: beet, effect on crop grade: application herbicide amount 320 g/ha
Outline: as §3

Setaria viridis = assay: Test Example 5: herbicidal effect by foliage application, plastic box (symbol G); conditions: 320 g/ha, 3 weeks after application
Outline: (§4)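 Post-emergence spray; diluvial soil (sterilized), ~1.5 cm seed cover; greenhouse 25–30° C; 14-day-old plants; water-diluted emulsion at predetermined dose; visual score at 3 wk post-treatment.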

Alopecurus myosuroides = assay: Test Example 5: herbicidal effect by foliage application, plastic box (symbol J); conditions: 320 g/ha, 3 weeks after application
Outline: as §4

Abutilon theophrasti = assay: Test Example 5: herbicidal effect by foliage application, plastic box (symbol M); conditions: 320 g/ha, 3 weeks after application
Outline: as §4

Chenopodium album [3] = assay: Test Example 5: herbicidal effect by foliage application, plastic box (symbol O); conditions: 320 g/ha, 3 weeks after application
Outline: as §4

Stellaria media = assay: Test Example 5: herbicidal effect by foliage application, plastic box (symbol P); conditions: 320 g/ha, 3 weeks after application
Outline: as §4

Galium spurium = assay: Test Example 5: herbicidal effect by foliage application, plastic box (symbol Q); conditions: 320 g/ha, 3 weeks after application
Outline: as §4

Veronica persica = assay: Test Example 5: herbicidal effect by foliage application, plastic box (symbol R); conditions: 320 g/ha, 3 weeks after application
Outline: as §4

soybean = assay: Test Example 5: effect on crop by foliage application, plastic box (symbol d); conditions: 320 g/ha, 3 weeks after application
Outline: (§5)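 Crop and weed seeds sown in spots in sterilized diluvial soil in plastic boxes and covered with about 1.5 cm soil. Plants raised in a greenhouse at 25° C. to 30° C. for foliar application.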

rice plant = assay: Test Example 5: effect on crop by foliage application, plastic box (symbol b); conditions: 320 g/ha, 3 weeks after application
Outline: as §5

[4] = application herbicide amount 320 g/ha

SMILES | Herbicidal effect grade, B: Scirpus juncoides (Scirpus juncoides) | herbicidal effect on D (Leptochloa chinensis), grade 0-5 (Leptochloa chinensis) | herbicidal effect on E, grade 0-5 (Cyperus difformis) | G: Setaria viridis, herbicidal effect grade (Setaria viridis) | J: Alopecurus myosuroides, herbicidal effect grade (Alopecurus myosuroides) | M: Abutilon theophrasti, herbicidal effect grade (Abutilon theophrasti) | O: Chenopodium album, herbicidal effect grade (Chenopodium album [3]) | P: Stellaria media, herbicidal effect grade (Stellaria media) | Q: Galium spurium, herbicidal effect grade (Galium spurium) | R: Veronica persica, herbicidal effect grade (Veronica persica) | d: soybean, effect on crop grade (soybean) | b: directly sowed rice plant, effect on crop grade (rice plant) | F: Digitaria ciliaris, herbicidal effect grade (Digitaria ciliaris; [4]) | H: Echinochloa crus-galli var. crus-galli, herbicidal effect grade [1, 4] | K: Lolium multiflorum Lam., herbicidal effect grade (Lolium multiflorum Lam.; [4]) | N: Amaranthus retroflexus, herbicidal effect grade (Amaranthus retroflexus; [4]) | O: Chenopodium album, herbicidal effect grade (Chenopodium album [2]; [4]) | b: directly sowed rice plant, effect on crop grade (rice) | f: beet, effect on crop grade (beet) | other results
COC(=O)C(C(C)=O)C1CC(O)=C(c2c(C)cc(C)cc2C)C1=O (stereo not shown) [2-003] | 0 (Herbicidal ratio of 5% or lower (almost no effect)) | 5 (Herbicidal ratio of 90% or more (almost completely withered)) | 4 (Herbicidal ratio of 70% or higher and lower than 90%) | 5 (Herbicidal ratio of 90% or more (almost completely withered)) | 5 (Herbicidal ratio of 90% or more (almost completely withered)) | 1 (Herbicidal ratio of 5% or higher and lower than 20%) | 0 (Herbicidal ratio of 5% or lower (almost no effect)) | 0 (Herbicidal ratio of 5% or lower (almost no effect)) | 0 (Herbicidal ratio of 5% or lower (almost no effect)) | 3 (Herbicidal ratio of 40% or higher and lower than 70%) | 0 (Herbicidal ratio of 5% or lower (almost no effect)) | 5 (Herbicidal ratio of 90% or more (almost completely withered)) | – | – | – | – | – | – | – | F: Digitaria ciliaris, herbicidal effect grade (Digitaria ciliaris; 320 g/ha): 4 (Herbicidal ratio of 70% or higher and lower than 90%); H: Echinochloa crus-galli var. crus-galli, herbicidal effect grade ([1]; 320 g/ha): 0 (Herbicidal ratio of 5% or lower (almost no effect)); K: Lolium multiflorum Lam., herbicidal effect grade (Lolium multiflorum Lam.; 320 g/ha): 5 (Herbicidal ratio of 90% or more (almost completely withered)); N: Amaranthus retroflexus, herbicidal effect grade (Amaranthus retroflexus; 320 g/ha): 0 (Herbicidal ratio of 5% or lower (almost no effect)); O: Chenopodium album, herbicidal effect grade (Chenopodium album [2]; 320 g/ha): 0 (Herbicidal ratio of 5% or lower (almost no effect)); b: directly sowed rice plant, effect grade on crop (rice; 320 g/ha): 2 (Herbicidal ratio of 20% or higher and lower than 40%); f: beet, effect grade on crop (beet; 320 g/ha): 0 (Herbicidal ratio of 5% or lower (almost no effect))
CCOC(=O)C(C(=O)C(C)C)C1CC(O)=C(c2c(C)cc(C)cc2C)C1=O (stereo not shown) [2-009] | 0 (Herbicidal ratio of 5% or lower (almost no effect)) | 0 (Herbicidal ratio of 5% or lower (almost no effect)) | 0 (Herbicidal ratio of 5% or lower (almost no effect)) | 0 (Herbicidal ratio of 5% or lower (almost no effect)) | 1 (Herbicidal ratio of 5% or higher and lower than 20%) | 0 (Herbicidal ratio of 5% or lower (almost no effect)) | 0 (Herbicidal ratio of 5% or lower (almost no effect)) | 0 (Herbicidal ratio of 5% or lower (almost no effect)) | 0 (Herbicidal ratio of 5% or lower (almost no effect)) | 0 (Herbicidal ratio of 5% or lower (almost no effect)) | 0 (Herbicidal ratio of 5% or lower (almost no effect)) | 4 (Herbicidal ratio of 70% or higher and lower than 90%) | 2 (Herbicidal ratio of 20% or higher and lower than 40%) | 1 (Herbicidal ratio of 5% or higher and lower than 20%) | 0 (Herbicidal ratio of 5% or lower (almost no effect)) | 0 (Herbicidal ratio of 5% or lower (almost no effect)) | 0 (Herbicidal ratio of 5% or lower (almost no effect)) | 5 (Herbicidal ratio of 90% or more (almost completely withered)) | 0 (Herbicidal ratio of 5% or lower (almost no effect)) | –
CCOC(=O)C(C(=O)C(F)(F)F)C1CC(O)=C(c2c(C)cc(C)cc2C)C1=O (stereo not shown) [2-010] | 0 (Herbicidal ratio of 5% or lower (almost no effect)) | 0 (Herbicidal ratio of 5% or lower (almost no effect)) | 0 (Herbicidal ratio of 5% or lower (almost no effect)) | 0 (Herbicidal ratio of 5% or lower (almost no effect)) | 0 (Herbicidal ratio of 5% or lower (almost no effect)) | 0 (Herbicidal ratio of 5% or lower (almost no effect)) | 0 (Herbicidal ratio of 5% or lower (almost no effect)) | 0 (Herbicidal ratio of 5% or lower (almost no effect)) | 0 (Herbicidal ratio of 5% or lower (almost no effect)) | 0 (Herbicidal ratio of 5% or lower (almost no effect)) | 0 (Herbicidal ratio of 5% or lower (almost no effect)) | 0 (Herbicidal ratio of 5% or lower (almost no effect)) | 0 (Herbicidal ratio of 5% or lower (almost no effect)) | 0 (Herbicidal ratio of 5% or lower (almost no effect)) | 0 (Herbicidal ratio of 5% or lower (almost no effect)) | 0 (Herbicidal ratio of 5% or lower (almost no effect)) | 0 (Herbicidal ratio of 5% or lower (almost no effect)) | 0 (Herbicidal ratio of 5% or lower (almost no effect)) | 0 (Herbicidal ratio of 5% or lower (almost no effect)) | –
CCOC(=O)C(C(=O)Cc1ccccc1)C1CC(O)=C(c2c(C)cc(C)cc2C)C1=O (stereo not shown) [2-011] | 0 (Herbicidal ratio of 5% or lower (almost no effect)) | 0 (Herbicidal ratio of 5% or lower (almost no effect)) | 0 (Herbicidal ratio of 5% or lower (almost no effect)) | 0 (Herbicidal ratio of 5% or lower (almost no effect)) | 1 (Herbicidal ratio of 5% or higher and lower than 20%) | 0 (Herbicidal ratio of 5% or lower (almost no effect)) | 0 (Herbicidal ratio of 5% or lower (almost no effect)) | 0 (Herbicidal ratio of 5% or lower (almost no effect)) | 0 (Herbicidal ratio of 5% or lower (almost no effect)) | 0 (Herbicidal ratio of 5% or lower (almost no effect)) | 0 (Herbicidal ratio of 5% or lower (almost no effect)) | 3 (Herbicidal ratio of 40% or higher and lower than 70%) | 0 (Herbicidal ratio of 5% or lower (almost no effect)) | 0 (Herbicidal ratio of 5% or lower (almost no effect)) | 0 (Herbicidal ratio of 5% or lower (almost no effect)) | 0 (Herbicidal ratio of 5% or lower (almost no effect)) | 0 (Herbicidal ratio of 5% or lower (almost no effect)) | 0 (Herbicidal ratio of 5% or lower (almost no effect)) | 0 (Herbicidal ratio of 5% or lower (almost no effect)) | –
